Data: the supplement of paper PMC11208160

Assay: recombinant UMI read abundance after kanamycin selection (control-corrected) (log10(CPM+1)); higher = more efficient recombination; extreme values may be limits of the assay; sequences stand for … in AGTGCAGAGAAAATCGGCCAGTTTTCTCTGCCTGCAGTCCGCATGCCGTGGGACCCCTTGGGTTCTAACCTGTTGCCTAGATTTATGCAGCGGACTGCCTTTCTCCCAAAGTGATAAACCGG…AGGTTGGTTTCACT; site = the 11-nt donor
Procedure, shortened: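 Sequencing read counts were converted to CPM, averaged over two replicates and scaled by control-derived factors. Results are given as log10(CPM+1). The reads covered the donor–target junction of recombinant UMIs from a pooled Escherichia coli screen of donor and donor-binding-loop pairs for the IS621 bridge recombinase.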
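Note: IS621 bridge recombinase in Escherichia coli cells against a fixed T5 target plasmid.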

Sequence | recombinant UMI read abundance (log10)
TAGTATACATGGACCGGTTTTCCCGGTAATCCGTATTTGTG (site TAGTATACTCA) | 0.807
TAGTCAACATGGACCGGTTTTCCCGGTAATCCGTATTTGTT (site TAGTCAACTAA) | 0.0293
TAGTCAGCATGGACCGGTTTTCCCGGTAATCCGTATTTGCT (site TAGTCAGCTAG) | 0.957
TAGTCTGCATGGACCGGTTTTCCCGGTAATCCGTATTTGAG (site TAGTCTGCTCT) | 0.338
TAGTGAGCATGGACCGGTTTTCCCGGTAATCCGTATTTGGG (site TAATGAGCTCC) | 0.00708
TAGTGAGCATGGACCGGTTTTCCCGGTAATCCGTATTTGGG (site TACTGAGCTCC) | 0
TAGTGAGCATGGACCGGTTTTCCCGGTAATCCGTATTTGGG (site TAGTGAGCTCC) | 0.0293
TAGTGAGCATGGACCGGTTTTCCCGGTAATCCGTATTTGGG (site TATTGAGCTCC) | 0
TAGTGGACATGGACCGGTTTTCCCGGTAATCCGTATTTGTT (site TAGTGGACTAA) | 1.38
TAGTGTACATGGACCGGTTTTCCCGGTAATCCGTATTTGAT (site TAGTGTACTAT) | 0.856
TATAAAGCATGGACCGGTTTTCCCGGTAATCCGTATTTGGA (site TATAAAGCTTC) | 0.646
TATAATACATGGACCGGTTTTCCCGGTAATCCGTATTTGCA (site TAAAATACTTG) | 1.04
TATAATACATGGACCGGTTTTCCCGGTAATCCGTATTTGCA (site TACAATACTTG) | 0.35
TATAATACATGGACCGGTTTTCCCGGTAATCCGTATTTGCA (site TAGAATACTTG) | 2.6
TATAATACATGGACCGGTTTTCCCGGTAATCCGTATTTGCA (site TATAATACTTG) | 0.242
TATACTGCATGGACCGGTTTTCCCGGTAATCCGTATTTGCT (site TATACTGCTAG) | 1.63
TATAGCGCATGGACCGGTTTTCCCGGTAATCCGTATTTGTC (site TATAGCGCTGA) | 2.62
TATAGTCCATGGACCGGTTTTCCCGGTAATCCGTATTTGTA (site TAAAGTCCTTA) | 0.605
TATAGTCCATGGACCGGTTTTCCCGGTAATCCGTATTTGTA (site TACAGTCCTTA) | 0.121
TATAGTCCATGGACCGGTTTTCCCGGTAATCCGTATTTGTA (site TAGAGTCCTTA) | 0.0216
TATAGTCCATGGACCGGTTTTCCCGGTAATCCGTATTTGTA (site TATAGTCCTTA) | 0.432
TATCAAACATGGACCGGTTTTCCCGGTAATCCGTATTTGGC (site TATCAAACTGC) | 0
TATCACACATGGACCGGTTTTCCCGGTAATCCGTATTTGTC (site TATCACACTGA) | 1.5
TATCAGCCATGGACCGGTTTTCCCGGTAATCCGTATTTGTT (site TATCAGCCTAA) | 0.0212
TATCCATCATGGACCGGTTTTCCCGGTAATCCGTATTTGCG (site TATCCATCTCG) | 0.52

Sequence | recombinant UMI read abundance (log10)
TATCGAGCATGGACCGGTTTTCCCGGTAATCCGTATTTGTC (site TATCGAGCTGA) | 2.55
TATCGTCCATGGACCGGTTTTCCCGGTAATCCGTATTTGCG (site TATCGTCCTCG) | 0.0127
TATCTCACATGGACCGGTTTTCCCGGTAATCCGTATTTGTC (site TATCTCACTGA) | 1.44
TATCTTCCATGGACCGGTTTTCCCGGTAATCCGTATTTGGT (site TATCTTCCTAC) | 0.00632
TATGCGACATGGACCGGTTTTCCCGGTAATCCGTATTTGCT (site TATGCGACTAG) | 1.27
TATGCTGCATGGACCGGTTTTCCCGGTAATCCGTATTTGGA (site TATGCTGCTTC) | 0.0199
TATGGACCATGGACCGGTTTTCCCGGTAATCCGTATTTGCA (site TATGGACCTTG) | 0
TATGGGTCATGGACCGGTTTTCCCGGTAATCCGTATTTGCT (site TATGGGTCTAG) | 2.88
TATGTAACATGGACCGGTTTTCCCGGTAATCCGTATTTGCT (site AATGTAACTAG) | 0.864
TATGTAACATGGACCGGTTTTCCCGGTAATCCGTATTTGCT (site CATGTAACTAG) | 1.18
TATGTAACATGGACCGGTTTTCCCGGTAATCCGTATTTGCT (site GATGTAACTAG) | 1.67
TATGTAACATGGACCGGTTTTCCCGGTAATCCGTATTTGCT (site TATGTAACTAG) | 2.06
TATGTATCATGGACCGGTTTTCCCGGTAATCCGTATTTGCC (site TATGTATCTGG) | 2.66
TATGTGGCATGGACCGGTTTTCCCGGTAATCCGTATTTGAA (site TATGTGGCTTT) | 0.784
TATGTGGCATGGACCGGTTTTCCCGGTAATCCGTATTTGTG (site TATATGGCTCA) | 0.00536
TATGTGGCATGGACCGGTTTTCCCGGTAATCCGTATTTGTG (site TATCTGGCTCA) | 0.0111
TATGTGGCATGGACCGGTTTTCCCGGTAATCCGTATTTGTG (site TATGTGGCTCA) | 0.00847
TATGTGGCATGGACCGGTTTTCCCGGTAATCCGTATTTGTG (site TATTTGGCTCA) | 0.0197
TATTAACCATGGACCGGTTTTCCCGGTAATCCGTATTTGCC (site TATTAACCTGG) | 0
TATTCAACATGGACCGGTTTTCCCGGTAATCCGTATTTGCC (site TATTCAACTGG) | 0.527
TATTCGGCATGGACCGGTTTTCCCGGTAATCCGTATTTGGT (site TATTCGGCTAC) | 0
TATTCTGCATGGACCGGTTTTCCCGGTAATCCGTATTTGGA (site TATTCTGCTTC) | 0.603
TATTTAGCATGGACCGGTTTTCCCGGTAATCCGTATTTGTG (site TATTTAGCTCA) | 0.31
TATTTAGCATGGACCGGTTTTCCCGGTAATCCGTATTTGTG (site TATTTCGCTCA) | 0.026
TATTTAGCATGGACCGGTTTTCCCGGTAATCCGTATTTGTG (site TATTTGGCTCA) | 0.0112

Sequence | recombinant UMI read abundance (log10)
TATTTAGCATGGACCGGTTTTCCCGGTAATCCGTATTTGTG (site TATTTTGCTCA) | 0.0238
TATTTGGCATGGACCGGTTTTCCCGGTAATCCGTATTTGGG (site TATTTGGCTCA) | 0
TATTTGGCATGGACCGGTTTTCCCGGTAATCCGTATTTGGG (site TATTTGGCTCC) | 0.0427
TATTTGGCATGGACCGGTTTTCCCGGTAATCCGTATTTGGG (site TATTTGGCTCG) | 0.0185
TATTTGGCATGGACCGGTTTTCCCGGTAATCCGTATTTGGG (site TATTTGGCTCT) | 0.0188
TCAAATTCATGGACCGGTTTTCCCGGTAATCCGTATTTGCC (site TCAAATTCTGG) | 0.558
TCAAATTCATGGACCGGTTTTCCCGGTAATCCGTATTTGCC (site TCCAATTCTGG) | 0
TCAAATTCATGGACCGGTTTTCCCGGTAATCCGTATTTGCC (site TCGAATTCTGG) | 0
TCAAATTCATGGACCGGTTTTCCCGGTAATCCGTATTTGCC (site TCTAATTCTGG) | 0
TCAACCCCATGGACCGGTTTTCCCGGTAATCCGTATTTGGT (site TCAACCCCTAC) | 0
TCAACGTCATGGACCGGTTTTCCCGGTAATCCGTATTTGCA (site TCAACGTCTTG) | 0
TCAAGAACATGGACCGGTTTTCCCGGTAATCCGTATTTGGG (site TCAAGAACTCC) | 0.301
TCACACACATGGACCGGTTTTCCCGGTAATCCGTATTTGAT (site TCACACACTAT) | 1.33
TCACACACATGGACCGGTTTTCCCGGTAATCCGTATTTGTG (site TCACACACTCA) | 0.198
TCACACTCATGGACCGGTTTTCCCGGTAATCCGTATTTGCA (site TCAAACTCTTG) | 0
TCACACTCATGGACCGGTTTTCCCGGTAATCCGTATTTGCA (site TCACACTCTTG) | 2.68
TCACACTCATGGACCGGTTTTCCCGGTAATCCGTATTTGCA (site TCAGACTCTTG) | 0
TCACACTCATGGACCGGTTTTCCCGGTAATCCGTATTTGCA (site TCATACTCTTG) | 1.85
TCACGACCATGGACCGGTTTTCCCGGTAATCCGTATTTGTG (site TCACGACCTCA) | 0.0189
TCACGGCCATGGACCGGTTTTCCCGGTAATCCGTATTTGGT (site TCACGGCCTAC) | 0.00583
TCACTAACATGGACCGGTTTTCCCGGTAATCCGTATTTGGA (site TCACTAACTTC) | 0.957
TCACTATCATGGACCGGTTTTCCCGGTAATCCGTATTTGCA (site ACAGTATCTTG) | 0
TCACTATCATGGACCGGTTTTCCCGGTAATCCGTATTTGCA (site TCACTATCTTG) | 2.41
TCACTCGCATGGACCGGTTTTCCCGGTAATCCGTATTTGAA (site TCACTCGCTTT) | 1.86
TCAGACCCATGGACCGGTTTTCCCGGTAATCCGTATTTGGA (site TCAGACCCTTC) | 0.201
